Assay results: publication PMC12728616, “Regioselective Glycosylation of Fluorine-18-Labeled Sorbitol for Enhanced Bacterial Detection In Vivo Using PET” (JACS Au, 2025)

Assays:
[1] = test system: K. pneumoniae; assay: In vitro uptake of 18F-tracers by bacteria; assay type: cell-based, Klebsiella pneumoniae
Experimental: (§1) In vitro evaluation of ^18F-tracers was conducted according to our established procedure. Briefly, bacteria were incubated overnight at 37 °C, subcultured into a fresh medium at an initial OD600 of 0.05, and then allowed to reach the mid log phase (OD600 ∼ 0.4). The cultures were subsequently incubated with ^18F-tracers (final concentration: 0.1 MBq/mL) at 37 °C for 90 min. Subsequently, 300 μL aliquots of these cultures were centrifuged at 13,200 rpm for 6 min. The resulting pellets were washed with 300 μL of phosphate-buffered saline (PBS). The radioactivity of the pellets and supernatants was measured using a gamma counter. Uptake values were normalized to colony-forming units (CFUs).

[2] = test system: MRSA; assay: PET/CT in MRSA myositis murine model; assay type: in vivo, mice; settings: for ratio of live/heat-killed S. aureus inoculated sites, in vivo: PET 80 min postinjection (mid time)
Experimental: We next compared [^18F]-FNT and [^18F]-FMT PET in a S. aureus myositis model. […] To compare the in vivo detection sensitivity of [^18F]-FNT and [^18F]-FMT in a MRSA myositis model, we injected the left deltoid with live MRSA and the right deltoid with 10x heat-killed MRSA, respectively (Figure B).
All animal procedures were conducted in accordance with UCSF institutional guidelines and were approved by the Institutional Animal Care and Use Committee (IACUC). Female CBA/J mice (9 and 11 weeks old) were used for the study. Pulmonary infection and bacterial myositis models were established based on previously published protocols. , For pulmonary infection, 50 μL of K. pneumoniae (5 × 10^6 CFU) or 10× heat-killed K. pneumoniae were administered intranasally under anesthesia 24 h prior to imaging using PET. After PET scans, infected lungs were homogenized in PBS and plated on LB agar. Plates were incubated overnight at 37 °C to quantify the bacterial burden. […] Immediately following all imaging studies, target tissues were harvested, and radioactivity was measured using a gamma counter.
μPET/CT imaging was conducted using a nanoScan μPET/CT instrument (PET123S/CT1512, Mediso). Mice were anesthetized with 2% isoflurane/oxygen for intravenous administration of ^18F-tracers (∼5 MBq in 150 μL) via tail vein and maintained during data acquisition. PET data of uninfected mice were acquired in the list mode for 90 min, starting immediately after ^18F-tracer administration, followed by a CT scan. The PET data were reconstructed into three-dimensional volumes and coregistered with CT images using manufacturer-provided software in 53 dynamic frames (15 × 2 s, 6 × 5 s, 6 × 10 s, 4 × 30 s, 6 × 30 s, and 16 × 300 s). PET data of infected mice were acquired for 20 min, starting at 70 min postinjection of ^18F-tracer (mid time 80 min), followed by a CT scan. The list mode PET data were reconstructed into three-dimensional volumes in a single static frame. All PET scans were corrected for ^18F decay, dead time, and random coincidences and reconstructed into a 160 × 160 × 184 matrix with voxel size 0.8 mm using a three-dimensional ordered subject expectation maximization (OSEM) algorithm (40 iterations, 1 subset). Both attenuation and scatter corrections were applied to PET reconstructions using the coregistered CT. ROIs were drawn manually around the brain, lungs, liver, kidney, and urinary bladder using Amide software to generate image-derived TACs. For the estimation of blood pool radioactivity over time, ROIs were drawn on the left atrium. To estimate the plasma half-life of tracers, the TAC of the blood pool was fitted to a two-compartment model using a biexponential decay function: C t(t) = Ae ^–αt + Be ^ ‑βt , where C t(t) is the tracer concentration (% IDcc^–1) at time (t), A and B are the intercepts, and α and β are the distribution and elimination rate constants, respectively. , Quantitative uptake values are expressed as % IDcc^–1, representing the percent of the total injected dose per cubic centimeter. For the S. aureus myositis model, identical volume ROIs were drawn corresponding to the peak uptake of [^18F]-FNT at the live S. aureus inoculated site and heat-killed S. aureus inoculated site, respectively.

[3] = Radio-HPLC analysis of urine samples (metabolic stability in vivo); settings: urine from healthy mice 90 min after i.v. administration
Experimental: 7 Dosimetry extrapolated to humans and metabolic stability of [^18F]-FNT. (A) Estimated absorbed dose (mGy/MBq) extrapolated from murine biodistribution data using ICRP103 (adult female, 60 kg). (B–D) Representative radio-HPLC profiles of [^18F]-FDS (B), [^18F]-FNT (C), and urine samples collected from healthy mice 90 min following [^18F]-FNT administration via i.v. (D).

[4] = test system: methicillin-resistant S. aureus (MRSA) clinical isolates; assay: In vitro uptake in clinical isolates; assay type: cell-based, Staphylococcus aureus; settings: P < 0.0001
Experimental: as §1

[5] = test system: methicillin-sensitive S. aureus (MSSA) clinical isolates; assay: In vitro uptake in clinical isolates; assay type: cell-based, Staphylococcus aureus; settings: vs S. aureus ATCC 29213; P < 0.0001
Experimental: as §1

[6] = test system: S. aureus (ATCC 29213); assay: In vitro uptake of 18F-tracers by bacteria; assay type: cell-based, Staphylococcus aureus
Experimental: as §1

[7] = test system: Listeria monocytogenes; assay: In vitro uptake of 18F-tracers by bacteria; assay type: cell-based; settings: L. monocytogenes; 37 °C, 90 min
Experimental: as §1

[8] = test system: Enterococcus faecalis; assay: In vitro uptake of 18F-tracers by bacteria; assay type: cell-based; settings: E. faecalis; 37 °C, 90 min
Experimental: as §1

[9] = test system: Streptococcus agalactiae; assay: In vitro uptake of 18F-tracers by bacteria; assay type: cell-based; settings: S. agalactiae; 37 °C, 90 min
Experimental: as §1

[10] = test system: Streptococcus pyogenes; assay: In vitro uptake of 18F-tracers by bacteria; assay type: cell-based; settings: S. pyogenes; 37 °C, 90 min
Experimental: as §1

[11] = test system: Staphylococcus epidermidis; assay: In vitro uptake of 18F-tracers by bacteria; assay type: cell-based; settings: S. epidermidis; 37 °C, 90 min
Experimental: as §1

[12] = Human radiation dosimetry extrapolated from murine biodistribution; assay type: in vivo
Experimental: A dosimetry study was carried out in female CBA/J mice (n = 4, 9–11 weeks). Human organ and whole-body effective doses were extrapolated from the mice biodistribution data according to our previous report. For each organ, absorbed and equivalent doses (mGy/MBq or mSv/MBq), as well as whole-body effective doses (mSv/MBq), were calculated from murine data. Dose estimations were performed with OLINDA software (v1.1 and 2.0 with ICRP 60 and 103 tissue weighting factors). ,

OC[C@@H](O)[C@@H](O[C@H]1O[C@H](CO)[C@@H](O)[C@H](O)[C@H]1O)[C@H](O)[C@@H]([18F])CO [[18F]FMT, 2-deoxy-2-[18F]fluoro-D-maltitol]
in vitro uptake [1]: considerable uptake | ratio of live/heat-killed S. aureus inoculated sites, in vivo ([2]; MRSA myositis): 6 fold | ratio of live/heat-killed S. aureus inoculated sites, ex vivo ([2]; MRSA myositis, ex vivo analysis): 2.7 fold

OC[C@@H](O)[C@@H](O)[C@H](O[C@H]1O[C@H](CO)[C@@H](O)[C@H](O)[C@H]1O)[C@@H]([18F])CO [[18F]FNT, 2-deoxy-2-[18F]fluoro-D-nigeritol]
in vitro uptake [1]: considerable uptake | metabolic stability in vivo (urine radio-HPLC) [3]: remained intact, with no degradation observed | higher uptake in clinically isolated MRSA compared with [18F]FMT ([4]; in vitro): approximately 4 fold | uptake in clinical MRSA isolates compared to the reference MSSA strain ([4]; vs S. aureus ATCC 29213): higher uptake | uptake in clinical MSSA isolates compared to the reference MSSA strain [5]: higher uptake | uptake in the presence of nonradioactive [19F]FNT (blocking) ([6]; S. aureus ATCC 29213, 1 mM [19F]FNT, P < 0.0001): significantly reduced | in vitro uptake ([6]; S. aureus, 37 °C, 90 min): moderate uptake | uptake in heat-killed S. aureus ([6]; heat-killed bacteria, P < 0.0001): no uptake | in vitro uptake [7]: low | in vitro uptake [8]: moderate uptake | in vitro uptake [9]: low | in vitro uptake [10]: low | in vitro uptake [11]: moderate uptake | calculated human effective dose ([12]; ICRP 60): 0.0163 ± 0.0012 mSv/MBq | kidneys dose ([12]; ICRP 60 model): 0.0753 ± 0.0307 mSv/MBq | urinary bladder dose ([12]; ICRP 60 model): 0.1783 ± 0.0314 mSv/MBq | calculated human effective dose ([12]; ICRP 103): 0.0126 ± 0.0005 mSv/MBq | kidneys dose ([12]; ICRP 103 model): 0.0751 ± 0.0307 mSv/MBq | urinary bladder dose ([12]; ICRP 103 model): 0.1518 ± 0.0262 mSv/MBq | estimated organ-absorbed doses overall ([12]; overall, called low): > 0.02 mSv/MBq | ratio of live/heat-killed S. aureus inoculated sites, in vivo ([2]; MRSA myositis): ~28 fold | uptake at heat-killed sites, dynamic PET ([2]; by 70 min postinjection): negligible | PET signal at live MRSA inoculated deltoid, 10^4 CFU ([2]; inoculum 10^4 CFU, not significant vs uninfected controls (P = 0.2187)): negligible signals | PET signal at sites inoculated with heat-killed MRSA ([2]; static PET/CT 80 min postinjection (mid time)): no detectable signal
